Reference: patent publication US20240209038A1, “TARGETING PIEZO1 TO TREAT INHERITED AND AGE-RELATED MACULAR DEGENERATIONS” (priority 2021, published 2024)
No end group written: not given here.

Experiments:
primary polarized RPE [1] = assay: H3K9me3 immunostaining in primary polarized RPE; type: cell-based, pig; settings: prolonged piezo1 activation
Protocol: (§1) FIGS. 4A-4E. 4A, 3D reconstructions; 4B, quantitation of mitochondrial volumes from Tom20 staining in primary RPE cultures treated or not with Yoda1 and GsMTx-4. Warmer colors indicate healthy mitochondria and cooler colors indicate fragmented mitochondria. Mean±SEM; *** p<0.0001, unpaired t-test. 4C, H3K9me3 (red; merge with DAPI appears pink) immunostaining in primary RPE cultured on collagen or collagen with silica beads±GSMTx-4 (500 nM, 3 h). 4D, Actin labeling in live primary RPE cultures. Arrow heads: actin “knots” that indicate areas of actin polymerization prior to actomyosin contraction and cell extrusion. 4E, quantitation of actin staining intensity in primary RPE cultured on collagen or collagen with beads and treated with Yoda1 and/or GsMTx-4. Mean±SEM, *, p<0.05; *** p<0.001, unpaired t-test.
(§2) Primary adult RPE cultures. Polarized RPE monolayers from pig eyes were generated as described (Kaur et al., 2018; Tan et al., 2016; Toops et al., 2015; Toops et al., 2014). RPE on collagen-coated transwell filters form fully polarized monolayers within two weeks, develop trans-epithelial electrical resistances (TER) of ≥400 ohm·cm^2 and express RPE differentiation markers such as apical Na^+,K^+-ATPase and intracellular RPE65 (Toops et al., 2014).
(§3) Drugs that modulate Piezo1 activity (Xiao, 2020). […]

[2] = system: Abca4−/− mice RPE flatmounts; assay: Live imaging of calcium influx (Fluo-4 NW) in mouse RPE flatmounts; type: cell-based; settings: preliminary live imaging
Excerpt: (§4) Mice. There are no mouse models that adequately reproduce AMD phenotypes. We therefore used models that best recapitulate the phenotype of interest. We used pigmented wild-type (129S1/SvlmJ) and Abca4^−/− mice (Jackson Labs) because we and others have reported that Abca4^−/− mice RPE show an age-dependent accumulation of cholesterol and ceramide (Kaur et al., 2018; Lenis et al., 2017; Tan et al., 2016; Toops et al., 2015), which are known to prolong Piezo1 activation (Ridone et al., 2020, Shi et al., 2020).
(§5) Live imaging of mouse RPE flatmounts. Tissue from freshly harvested eyes will be mounted onto a Warner chamber in the presence of Fluorobrite DMEM (Gibco, A1896701) supplemented with 1% FBS (ATCC, 30-2020), 1% NEAA (Corning, 25025CI), and 4 mM L-glutamine (Gibco, 25030081) and imaged immediately using a 60× oil immersion objective (1.49 NA).
Live imaging of calcium influx. For live imaging of calcium influx, primary porcine RPE grown on Transwell filters±A2E or grown on silica beads, and mouse RPE flatmounts were loaded with Fluo-4 NW (Invitrogen, F36206) for 30 min according to manufacturer's protocol. […]

Piezo1 [3] = settings: Xiao, 2020; read-out: EC50, potentiates Piezo1 mechanosensitivity and slows the inactivation kinetics; cited from earlier work
primary polarized RPE [4] = assay: Mitochondrial volumes/fragmentation from Tom20 staining in primary RPE cultures; type: cell-based, pig
Protocol: as §1, §2, §3

[5] = system: Abca4−/− mice RPE flatmounts; assay: Live imaging of actin (SiR-actin) in mouse RPE flatmounts; type: cell-based; settings: freshly isolated Abca4−/− mice RPE flatmounts compared to age-matched wild types
Excerpt: FIGS. 5A-5C. Validation of the Abca4−/− mouse model to study the role of Piezo1 in RPE dysfunction. 5A, H3K9me3 (red) immunostaining in 8-month-old wild type and Abca4−/− mouse RPE flatmounts. 5B, reconstruction of mitochondrial volumes from Tom20 staining in wild type and Abca4−/− mouse RPE flatmounts. Warmer colors indicate healthy mitochondria and cooler colors indicate fragmented mitochondria. 5C, Live imaging of mouse RPE flatmounts with FluoNW (green) and SiR-actin (red).
as §5
Live imaging of actin dynamics was performed using SiR-actin (1 μM, 30 min) and FLIPPER-TR plasma membrane probe in RPE with A2E or grown on silica beads±Yoda1±GsMTx-4

Piezo2 = settings: specificity for Piezo1; cited from earlier work
[6] = system: polarized primary RPE cultures; assay: Live imaging of actin dynamics (SiR-actin) in polarized primary RPE cultures; type: cell-based, pig
Protocol: as §1
Primary adult RPE cultures. Polarized RPE monolayers from pig eyes were generated as described (Kaur et al., 2018; Tan et al., 2016; Toops et al., 2015; Toops et al., 2014). RPE on collagen-coated transwell filters form fully polarized monolayers within two weeks, develop trans-epithelial electrical resistances (TER) of ≥400 ohm·cm^2 and express RPE differentiation markers such as apical Na^+,K^+-ATPase and intracellular RPE65 (Toops et al., 2014). […]

primary porcine RPE = assay: Live imaging of calcium influx (Fluo-4 NW) in polarized primary RPE; type: cell-based, pig; settings: for intracellular calcium spikes in RPE cultured on silica beads: RPE cultured on silica beads to simulate drusen; for cytosolic and nuclear calcium at baseline: RPE treated with stressor causing cholesterol and ceramide accumulation
Excerpt: as §2
(§6) Intrinsic stressors to activate Piezo1. RPE monolayers were treated with the bisretinoid A2E to increase cholesterol and ceramide (Kaur et al., 2018; La Cunza et al., 2020; Tan et al., 2016; Toops et al., 2015), which act as intrinsic stressors that activate Piezo1.
Extrinsic stressors to activate Piezo1. To simulate drusen-mediated mechanical stress, cells were cultured on collagen-coated filters layered with 500 nm diameter monodisperse silica microspheres (Cospheric SiO2MS-2.0 0.507 μm) at a density of 40 beads/cm^2 in a collagen (10 μg/cm^2) matrix.
Drugs that modulate Piezo1 activity (Xiao, 2020). Yoda1 is a small molecule gating modifier that specifically potentiates Piezo1 mechanosensitivity and slows the inactivation kinetics with EC50 of ˜10-20 μM. It interacts with the […] domains of Piezo1 and thereby increases channel opening time. […] We treated primary RPE cultures for 6 hours with 10 μM Yoda1 (Sigma SML1558) for immunostaining/immunoblotting and biochemical experiments, or with 25 μM for 1-5 minutes for live imaging experiments. RPE cultures were treated with 500 nM GsMTx-4 (Tocris 4912100U) for 6 h.
High-speed live-cell imaging. The Nikon CSU-X1 dual camera platform spinning disk confocal microscopy system will be used for live imaging of primary RPE cultures and mouse RPE flatmounts. Images will be analyzed using Imaris (Bitplane) (Kaur et al., 2018; Tan et al., 2016; Toops et al., 2015). If necessary, Delta Vision OMX-SR (GE Healthcare Life Sciences) with 3D structured illumination microscopy (3D-SIM) and ring-TIRF capabilities at UCSF's Nikon Imaging Center will be used for super-resolution imaging.
Live imaging of calcium influx. For live imaging of calcium influx, primary porcine RPE grown on Transwell filters±A2E or grown on silica beads, and mouse RPE flatmounts were loaded with Fluo-4 NW (Invitrogen, F36206) for 30 min according to manufacturer's protocol. Excised Transwell filters or mouse RPE flatmounts were mounted onto a Warner chamber in the presence of Fluorobrite DMEM (Gibco, A1896701) supplemented with 1% FBS (ATCC, 30-2020), 1% NEAA (Corning, 25025CI), and 4 mM L-glutamine (Gibco, 25030081) and imaged using Nikon spinning disk confocal microscope with 60× oil immersion objective (1.49 NA). To increase or inhibit Piezo1 channel activity, Yoda1 (25 μM) or GsMTx-4 (5 μM) was added prior to live imaging. Apart from these drugs, preincubation with BAPTA-AM (Thermofisher) was used to determine the Ca^2+-dependence of nuclear and cytosolic signals.

RPE [7] = settings: cited from earlier work; for cholesterol and ceramide accumulation in RPE: Tan et al., 2016
RPE [8] = assay: Complement-mediated mitochondrial fragmentation in RPE (mito-RFP live imaging, A2E + 10% NHS); type: cell-based; settings: A2E-treated RPE exposed to 10% NHS; Simvastatin 5 μM 16 h, T0901317 1 μM 16 h, desipramine 10 μM 3 h
Protocol: (§7) FIGS. 7A-7B. 7A, 3D reconstruction from live imaging of mitochondrial volumes in mock transfected RPE transduced with mito-RFP, treated with A2E and exposed to 10% NHS to induce complement attack. RPE were treated with Simvastatin (5 μM, 16 h), T0901317 (1 μM, 16 h) or desipramine (10 μM, 3 h) prior to imaging. […] 7B, Quantification of fragmented mitochondria per cell from images in A. Mean±SEM, ***, p<0.0001, t-test. C, H3K9me3 (red) immunostaining in retinal cryosections from Abca4−/− mice treated with vehicle or […] desipramine i.p.

Abca4−/− mice = assay: Nuclear H3K9me3 in RPE of Abca4−/− mice after drug administration; type: in vivo, mouse; settings: 10 mg/kg i.p., three times/week for four weeks, compared to vehicle-treated mice
Protocol: as §7, §4
Antibodies. All antibodies used were validated for specificity using the relevant IgG controls, cell lysates lacking the antigen, or by blocking peptides. […]

RPE [9] = assay: Cholesterol and ceramide accumulation in the RPE; type: cell-based; settings: FIGS. 3A and 3B
Protocol: as §6

Piezo1 [10] = molecular target: Piezo1 (Mus musculus, UniProt E2JF22); settings: whole cell recordings as described in Bae et al., Biochemistry 50:6295-300, 2011; range printed with mixed units (nM to μM); read-out: Kd, reversible block of Piezo1 activation; cited from earlier work
Piezo1 (Mus musculus, UniProt E2JF22), sequence (E2JF22 whole entry): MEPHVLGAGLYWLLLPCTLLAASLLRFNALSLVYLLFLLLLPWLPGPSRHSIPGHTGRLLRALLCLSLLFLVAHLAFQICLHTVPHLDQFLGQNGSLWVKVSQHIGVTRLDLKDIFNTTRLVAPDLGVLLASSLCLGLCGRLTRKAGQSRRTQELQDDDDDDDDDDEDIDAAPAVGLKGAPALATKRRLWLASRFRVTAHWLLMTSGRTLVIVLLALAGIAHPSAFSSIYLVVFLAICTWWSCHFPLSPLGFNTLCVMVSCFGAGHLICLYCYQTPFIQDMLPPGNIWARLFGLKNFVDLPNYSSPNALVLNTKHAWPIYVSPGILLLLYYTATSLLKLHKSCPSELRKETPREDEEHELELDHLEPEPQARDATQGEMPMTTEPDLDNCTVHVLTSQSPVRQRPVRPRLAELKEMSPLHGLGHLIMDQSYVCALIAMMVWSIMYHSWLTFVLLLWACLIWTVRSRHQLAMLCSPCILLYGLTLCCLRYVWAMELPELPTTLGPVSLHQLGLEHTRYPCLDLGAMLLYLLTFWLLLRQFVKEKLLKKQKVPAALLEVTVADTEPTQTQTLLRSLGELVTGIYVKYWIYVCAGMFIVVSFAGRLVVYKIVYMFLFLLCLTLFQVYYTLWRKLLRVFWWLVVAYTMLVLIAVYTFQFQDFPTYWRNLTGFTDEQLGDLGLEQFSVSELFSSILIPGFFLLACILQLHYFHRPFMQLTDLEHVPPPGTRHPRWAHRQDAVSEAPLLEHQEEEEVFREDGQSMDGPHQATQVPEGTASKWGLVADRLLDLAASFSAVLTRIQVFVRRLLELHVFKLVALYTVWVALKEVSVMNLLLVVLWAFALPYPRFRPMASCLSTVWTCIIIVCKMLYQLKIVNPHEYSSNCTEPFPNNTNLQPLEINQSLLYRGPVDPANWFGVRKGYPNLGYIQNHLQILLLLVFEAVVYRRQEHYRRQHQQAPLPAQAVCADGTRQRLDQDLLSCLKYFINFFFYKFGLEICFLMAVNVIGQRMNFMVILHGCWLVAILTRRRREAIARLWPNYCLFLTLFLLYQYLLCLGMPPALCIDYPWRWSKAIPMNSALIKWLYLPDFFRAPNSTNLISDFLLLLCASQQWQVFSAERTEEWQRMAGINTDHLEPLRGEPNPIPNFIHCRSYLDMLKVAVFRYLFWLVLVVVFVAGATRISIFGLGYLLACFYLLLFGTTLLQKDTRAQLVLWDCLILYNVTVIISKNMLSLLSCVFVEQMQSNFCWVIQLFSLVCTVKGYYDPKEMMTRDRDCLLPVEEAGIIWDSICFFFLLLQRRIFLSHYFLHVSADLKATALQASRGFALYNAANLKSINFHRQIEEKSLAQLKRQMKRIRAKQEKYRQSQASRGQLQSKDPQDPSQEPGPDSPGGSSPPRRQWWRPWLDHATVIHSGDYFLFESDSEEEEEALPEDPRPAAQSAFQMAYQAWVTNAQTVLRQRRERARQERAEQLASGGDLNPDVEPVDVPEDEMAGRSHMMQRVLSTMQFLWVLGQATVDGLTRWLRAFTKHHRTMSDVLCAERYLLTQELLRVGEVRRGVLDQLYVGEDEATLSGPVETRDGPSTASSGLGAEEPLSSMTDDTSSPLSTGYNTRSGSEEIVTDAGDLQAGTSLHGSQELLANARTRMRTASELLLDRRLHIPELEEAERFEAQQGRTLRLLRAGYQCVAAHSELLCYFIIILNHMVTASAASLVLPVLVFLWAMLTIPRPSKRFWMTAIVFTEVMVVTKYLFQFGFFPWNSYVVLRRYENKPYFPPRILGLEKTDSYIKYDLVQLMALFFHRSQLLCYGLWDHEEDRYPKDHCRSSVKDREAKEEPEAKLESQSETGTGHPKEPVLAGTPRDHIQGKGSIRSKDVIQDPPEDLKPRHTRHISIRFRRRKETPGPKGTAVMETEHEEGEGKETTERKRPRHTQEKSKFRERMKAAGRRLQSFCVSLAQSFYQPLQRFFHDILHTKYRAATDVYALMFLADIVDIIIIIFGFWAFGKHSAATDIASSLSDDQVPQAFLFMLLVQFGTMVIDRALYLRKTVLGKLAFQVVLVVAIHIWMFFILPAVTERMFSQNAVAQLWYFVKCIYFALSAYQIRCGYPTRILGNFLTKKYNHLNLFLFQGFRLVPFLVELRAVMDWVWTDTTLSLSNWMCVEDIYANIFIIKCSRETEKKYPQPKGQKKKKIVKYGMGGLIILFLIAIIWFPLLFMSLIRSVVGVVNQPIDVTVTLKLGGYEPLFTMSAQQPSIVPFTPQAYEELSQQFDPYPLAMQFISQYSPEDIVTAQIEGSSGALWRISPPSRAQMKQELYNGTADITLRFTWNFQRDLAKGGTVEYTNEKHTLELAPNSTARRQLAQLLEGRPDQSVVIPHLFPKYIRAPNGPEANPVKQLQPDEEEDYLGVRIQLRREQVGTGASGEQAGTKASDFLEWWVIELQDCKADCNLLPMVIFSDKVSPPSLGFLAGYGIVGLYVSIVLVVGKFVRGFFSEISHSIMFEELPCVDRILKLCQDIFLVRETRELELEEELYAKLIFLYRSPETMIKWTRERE

Piezo1 [11] = molecular target: T1, Piezo1 (Homo sapiens, UniProt Q92508); assay: Piezo1 currents in whole cell-clamped primary RPE (patch-clamp/high-speed pressure clamp); type: cell-based; settings: depletion of membrane cholesterol
T1 construct: Dissociated RPE cells from human donors were whole cell-clamped; endogenous in cells; host or cells: dissociated RPE cells from human donors
T1 sequence (Q92508 whole entry): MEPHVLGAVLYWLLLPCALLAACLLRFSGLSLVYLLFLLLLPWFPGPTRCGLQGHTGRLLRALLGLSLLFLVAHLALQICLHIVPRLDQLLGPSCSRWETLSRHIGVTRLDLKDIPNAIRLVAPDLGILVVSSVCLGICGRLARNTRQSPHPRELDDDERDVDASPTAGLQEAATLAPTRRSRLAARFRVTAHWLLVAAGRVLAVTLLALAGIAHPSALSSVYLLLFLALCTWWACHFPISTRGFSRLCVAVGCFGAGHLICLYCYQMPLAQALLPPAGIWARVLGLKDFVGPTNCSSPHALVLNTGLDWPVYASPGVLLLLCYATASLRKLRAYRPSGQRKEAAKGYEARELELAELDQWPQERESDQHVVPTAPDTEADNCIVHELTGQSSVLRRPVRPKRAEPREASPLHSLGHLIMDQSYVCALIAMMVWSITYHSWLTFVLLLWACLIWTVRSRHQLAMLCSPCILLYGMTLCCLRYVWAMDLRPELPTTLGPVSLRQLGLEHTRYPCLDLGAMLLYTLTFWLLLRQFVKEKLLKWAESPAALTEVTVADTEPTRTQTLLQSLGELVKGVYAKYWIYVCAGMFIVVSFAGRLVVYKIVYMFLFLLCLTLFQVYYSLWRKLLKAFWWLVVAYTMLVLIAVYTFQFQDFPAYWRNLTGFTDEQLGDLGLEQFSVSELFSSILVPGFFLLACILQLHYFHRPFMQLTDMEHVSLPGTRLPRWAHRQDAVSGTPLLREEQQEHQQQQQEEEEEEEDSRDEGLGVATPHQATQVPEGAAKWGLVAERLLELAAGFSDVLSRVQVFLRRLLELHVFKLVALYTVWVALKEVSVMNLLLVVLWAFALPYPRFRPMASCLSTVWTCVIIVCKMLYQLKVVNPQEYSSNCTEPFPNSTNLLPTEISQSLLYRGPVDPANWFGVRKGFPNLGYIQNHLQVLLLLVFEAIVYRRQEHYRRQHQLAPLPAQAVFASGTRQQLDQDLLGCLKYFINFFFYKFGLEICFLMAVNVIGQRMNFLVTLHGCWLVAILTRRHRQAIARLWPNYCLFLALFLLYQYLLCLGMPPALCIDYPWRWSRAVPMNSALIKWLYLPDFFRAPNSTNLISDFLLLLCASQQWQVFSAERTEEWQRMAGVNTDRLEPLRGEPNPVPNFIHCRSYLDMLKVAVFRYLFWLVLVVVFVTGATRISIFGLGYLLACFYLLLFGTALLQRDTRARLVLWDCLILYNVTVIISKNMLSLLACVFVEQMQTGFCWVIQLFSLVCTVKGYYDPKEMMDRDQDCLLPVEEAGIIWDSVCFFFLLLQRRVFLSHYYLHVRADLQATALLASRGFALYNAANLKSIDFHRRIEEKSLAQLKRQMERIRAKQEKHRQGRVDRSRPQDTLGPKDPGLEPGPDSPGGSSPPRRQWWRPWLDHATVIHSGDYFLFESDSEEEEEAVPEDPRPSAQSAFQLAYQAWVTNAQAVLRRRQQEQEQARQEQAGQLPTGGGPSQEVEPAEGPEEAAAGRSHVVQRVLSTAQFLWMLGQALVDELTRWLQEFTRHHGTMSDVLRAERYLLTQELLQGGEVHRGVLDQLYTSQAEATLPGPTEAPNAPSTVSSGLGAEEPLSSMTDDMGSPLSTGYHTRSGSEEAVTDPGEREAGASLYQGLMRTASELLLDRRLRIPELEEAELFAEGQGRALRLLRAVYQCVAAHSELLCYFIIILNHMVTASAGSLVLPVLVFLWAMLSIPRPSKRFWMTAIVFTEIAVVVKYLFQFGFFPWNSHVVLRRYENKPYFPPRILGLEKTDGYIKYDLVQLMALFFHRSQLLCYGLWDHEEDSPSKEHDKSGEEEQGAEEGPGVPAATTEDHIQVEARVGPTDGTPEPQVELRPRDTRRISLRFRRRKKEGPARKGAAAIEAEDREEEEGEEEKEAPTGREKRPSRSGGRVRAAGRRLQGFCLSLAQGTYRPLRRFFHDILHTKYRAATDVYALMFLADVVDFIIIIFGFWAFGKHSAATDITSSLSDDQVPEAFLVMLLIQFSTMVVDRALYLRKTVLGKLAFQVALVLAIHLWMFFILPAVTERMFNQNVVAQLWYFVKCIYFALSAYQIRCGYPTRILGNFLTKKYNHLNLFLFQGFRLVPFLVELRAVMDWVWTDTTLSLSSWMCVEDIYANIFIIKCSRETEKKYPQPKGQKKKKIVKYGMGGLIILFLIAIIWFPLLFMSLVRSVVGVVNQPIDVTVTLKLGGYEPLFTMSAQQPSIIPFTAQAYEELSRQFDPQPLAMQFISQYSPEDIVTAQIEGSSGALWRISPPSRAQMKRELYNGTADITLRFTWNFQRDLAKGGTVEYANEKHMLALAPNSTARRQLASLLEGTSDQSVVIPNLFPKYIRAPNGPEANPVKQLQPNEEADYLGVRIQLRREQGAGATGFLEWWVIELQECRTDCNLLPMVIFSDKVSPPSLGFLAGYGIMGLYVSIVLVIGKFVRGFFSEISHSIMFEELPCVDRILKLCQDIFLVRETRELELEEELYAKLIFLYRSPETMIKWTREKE
Excerpt: FIGS. 3A-3D. Cholesterol and ceramide modulate Piezo1 activation in the RPE. 3A, Stills (at 130 sec and 300 sec) from Fluo4NW live imaging (green); 3B, quantification. In the results provided in FIGS. 3A and 3B, U18 increased cholesterol and ceramide. Mean±SEM, ** p<0.005, unpaired t-test. 3C, Representative traces of whole-cell currents in primary RPE recorded in a typical patch-clamp/HSPC experiment (40 mV holding potential, 25 mm Hg pressure step for 500 mSec). Black trace—control cells; red trace—RPE treated with b-cyclodextrin to deplete membrane cholesterol. 3D, Quantification of results in C. Mean±SEM, n=4 cells.
Electrophysiology. Dissociated RPE cells from human donors were whole cell-clamped. Steps of positive pressure (2-30 mm Hg) were applied through the patch pipette using high-speed pressure clamp (ALA Instruments) or the cells stimulated with msec indentations of a blunt pipette tip (Physik Instrumente) to evoke the mechanosensitive current. The Piezo1-dependent current was confirmed using GsMTx-4 (Lapajne et al., 2020).

Piezo1 [12] = settings: Suchyna, et al. Nature 430:235-240, 2004; cited from earlier work
[13] = in vitro and in vivo (Kaur et al., 2018; Tan et al., 2016; Toops et al., 2015)

Clc1cccc(Cl)c1CSc1nnc(-c2cnccn2)s1 [Yoda1]
nuclear H3K9me3 (primary polarized RPE [1]): loss of nuclear H3K9me3 | calcium influx in freshly isolated RPE flatmounts [2]: increased calcium influx | EC50 (Piezo1 [3]): 10 to 20 µM | mitochondrial fragmentation (primary polarized RPE [4]): mitochondrial fragmentation | actin intensity in RPE flatmounts [5]: increased actin intensity | activation of Piezo2 (Piezo2): does not activate Piezo2 | actin accumulation at cell-cell junctions [6]: caused rapid actin accumulation at cell-cell junctions | calcium influx in the RPE (primary porcine RPE; 25 μM, 1 min, RPE on collagen, live imaging): induces a rapid nuclear calcium influx within seconds | intracellular calcium spikes in RPE cultured on silica beads (primary porcine RPE): further potentiated

CNCCCN1c2ccccc2CCc2ccccc21 [desipramine]
lipofuscin-induced ceramide accumulation in the RPE (RPE [7]; [13]): decreased | complement-mediated mitochondrial fragmentation in RPE (RPE [8]): protect | nuclear H3K9me3 in the RPE (Abca4−/− mice): restored nuclear H3K9me3

CCN(CC)CCO[C@H]1CC[C@@]2(C)C(=CC[C@@H]3[C@@H]2CC[C@]2(C)C(=O)CC[C@@H]32)C1 [U18666A]
cholesterol and ceramide accumulation in RPE (RPE [7]): cause cholesterol and ceramide accumulation | cholesterol and ceramide in RPE (RPE [9]): increased | cytosolic and nuclear calcium at baseline (primary porcine RPE): prolonged cytosolic and nuclear calcium even at baseline | calcium levels after Yoda1 treatment (primary porcine RPE; RPE+U18 versus control RPE, where they returned to baseline within minutes): remained high in all cellular compartments

O=S(=O)(c1ccccc1)N(CC(F)(F)F)c1ccc(C(O)(C(F)(F)F)C(F)(F)F)cc1 [T0901317]
lipofuscin-induced cholesterol accumulation in the RPE (RPE [7]; [13]): decreased | complement-mediated mitochondrial fragmentation in RPE (RPE [8]): protect

CC1=C(/C=C/C(C)=C/C=C/C(C)=C/c2cc(/C=C/C=C(C)/C=C/C3=C(C)CCCC3(C)C)cc[n+]2CCO)C(C)(C)CCC1 [A2E]
cholesterol and ceramide accumulation in RPE (RPE [7]): cause cholesterol and ceramide accumulation | cytosolic and nuclear calcium at baseline (primary porcine RPE): prolonged cytosolic and nuclear calcium even at baseline

GsMTx-4
Kd (Piezo1 [10]): 155 to 2000 nM | mitochondrial fragmentation (primary polarized RPE [4]): protected RPE mitochondria | actin accumulation at cell-cell junctions [6]: prevented | intracellular calcium spikes in RPE cultured on silica beads (primary porcine RPE): decreased

cyclodextrin
peak current amplitudes of Piezo1 currents (Piezo1 [11]): drastically decreased

GsMTx4-L: L enantiomeric form of GsMTx4 (GCLEFWWKCNPNDDKCCRPKLKCSKLFKLCNFSF; ends and bridges not checked; cysteine pairing not given here; UniProt Q7YT39 47-80, looked up)
effectiveness at blocking Piezo1 activation, L- versus D-enantiomer (Piezo1 [12]): equally effective
